Assay results published in patent publication US11897849B1, “N′-(2-(5-phenyl-1,3,4-oxadiazol-2-ylthio)acetoxy)-1-naphthimidamide as antimicrobial compound” (KING FAISAL UNIVERSITY, priority 2023, dated 2024).

Experiments:
Aspergillus flavus = assay: Agar plate disc-diffusion, antifungal; format: cell-based
Procedure: (§1) The agar plate disc-diffusion method was applied. […] The discs were then placed onto the surface of agar plates (nutrient agar for bacteria and Sabouraud's dextrose agar for fungi) seeded with the test organism. Each plate contained 15 of the agar medium, previously seeded with 0.2 mL of the broth culture of each organism pre-grown for 18 hours. The plates were incubated at 37° C. for 48 hours and 72 hours for fungi. The inhibition zones were measured in mm. Discs impregnated with DMSO were used as a control, and their inhibition zone was subtracted from the tested compound's actual inhibition zone.

Staphylococcus aureus = assay: Agar plate disc-diffusion, antibacterial; format: cell-based
Procedure: as §1

Bacillus cereus = assay: Agar plate disc-diffusion, antibacterial; format: cell-based
Procedure: as §1

Pseudomonas aeruginosa = assay: Agar plate disc-diffusion, antibacterial; format: cell-based
Procedure: as §1

Escherichia coli = assay: Agar plate disc-diffusion, antibacterial; format: cell-based
Procedure: as §1

[1] = tested on: Chrysosporium keratinophilum; assay: Agar plate disc-diffusion, antifungal; format: cell-based
Procedure: The agar plate disc-diffusion method was applied. Sterilized filter papers (6 mm in diameter) were wetted with 10 μL of a solution of N′-(2-(5-phenyl-1,3,4-oxadiazol-2-ylthio)acetoxy)-2-naphthimidamide (3) to be tested, containing 10 mg/mL in DMSO, and the discs were allowed to air dry. The discs were then placed onto the surface of agar plates (nutrient agar for bacteria and Sabouraud's dextrose agar for fungi) seeded with the test organism. Each plate contained 15 of the agar medium, previously seeded with 0.2 mL of the broth culture of each organism pre-grown for 18 hours. The plates were incubated at 37° C. for 48 hours and 72 hours for fungi. The inhibition zones were measured in mm. Discs impregnated with DMSO were used as a control, and their inhibition zone was subtracted from the tested compound's actual inhibition zone.

[2] = column A (key only in Table 1: 10,000 μL)
[3] = column B (key only in Table 1: 30.000 μL)
[4] = column C (key only in Table 1: 50,000 μL)
[5] = A = concentration of comp. = 10,000 μL
[6] = B = concentration of comp. = 30.000 μL
[7] = C = concentration of comp. = 50,000 μL

Row | Structure (SMILES) | melting point | inhibition zone (Aspergillus flavus; [2]) | inhibition zone (Aspergillus flavus; [3]) | inhibition zone (Aspergillus flavus; [4]) | inhibition zone (Staphylococcus aureus; [5]) | inhibition zone (Staphylococcus aureus; [6]) | inhibition zone (Staphylococcus aureus; [7]) | inhibition zone (Bacillus cereus; A = concentration of comp.) | inhibition zone (Bacillus cereus; [6]) | inhibition zone (Bacillus cereus; [7]) | inhibition zone (Pseudomonas aeruginosa; [5]) | inhibition zone (Pseudomonas aeruginosa; [6]) | inhibition zone (Pseudomonas aeruginosa; [7]) | inhibition zone (Escherichia coli; [5]) | inhibition zone (Escherichia coli; [6]) | inhibition zone (Escherichia coli; [7]) | inhibition zone [1, 2] | inhibition zone [1, 3] | inhibition zone [1, 4]
1 | N/C(=N\OC(=O)CSc1nnc(-c2ccccc2)o1)c1cccc2ccccc12 [Compound 3, N′-(2-(5-phenyl-1,3,4-oxadiazol-2-ylthio)acetoxy)-1-naphthimidamide] | 177 to 178 °C | 15 mm | 22 mm | 30 mm | 29 mm | 35 mm | 44 mm | 19 mm | 26 mm | 35 mm | 22 mm | 30 mm | 37 mm | 35 mm | 39 mm | 45 mm | 29 mm | 37 mm | 43 mm
2 | O=C(O)c1cn(C2CC2)c2cc(N3CCNCC3)c(F)cc2c1=O [Cip., ciprofloxacin, reference compound] | – | – | – | – | 43 mm | 44 mm | 53 mm | 29 mm | 30 mm | 42 mm | 29 mm | 30 mm | 53 mm | 30 mm | 39 mm | 60 mm | – | – | –
